Experimental data: patent US11746383B2, “Biomarker DLEC1 for cancer” (The Chinese University of Hong Kong, priority 2018, dated 2023)
Blank lines part the entries; values can stand above or below the compound they belong to.

Experiments:
[1] = tested on: DLEC1 expression in ESCC, lung and NPC carcinoma cell lines; experiment: Demethylation treatment (Aza, TSA) and DLEC1 expression / promoter methylation analysis (RT-PCR, MSP, BGS); format: cell-based, human
Source text: A panel of ESCC, NPC and lung carcinoma cell lines was used. Immortalized normal esophageal epithelial (NE1, NE3, Het-1A), normal nasopharyngeal epithelial (NP69) and HEK293T cell lines were used. Cell lines were maintained in RPMI or DMEM medium (Gibco BRL, Rockville, Md.) with 10% fetal bovine serum. Human normal adult tissue RNA samples were obtained commercially (Stratagene, La Jolla, Calif., or Millipore Chemicon, Billerica, Mass.). Primary carcinoma tissues of Chinese ESCC, NPC and lung, some with matched normal samples, have been descried before. Cell lines were treated with 5 μM of 5-Aza-2′-deoxycytidine (Aza) (Sigma, St. Louis, Mo.) for 3 days, or even followed with ˜16 h additional TSA (final concentration […]) treatment as described. MSP and BGS were conducted according to previous reports. MSP was conducted for 40 cycles at the annealing temperatures of 60° C. for M and 58° C. for U. Amplified products from BGS primer set were cloned into pCR4-Topo vector (Invitrogen, Carlsbad, Calif.), with 6-8 colonies randomly chosen and sequenced. RNA was reverse-transcribed using MuLV reverse transcriptase (GeneAmp RNA PCR kit, Applied Biosystems). RT-PCR was performed as described previously using GAPDH as a control.

[2] = tested on: DLEC1 CGI; experiment: ChIP assay, acetylated histone H4; format: cell-based, human; settings: carcinoma cells following TSA treatment
Method: ChIP assay was performed as described previously. Antibody to acetylated histone H4 (Upstate Biotechnology) was used to precipitate cross-linked chromatin. ACTIN was employed as a control for normalization of each PCR product.

[3] = tested on: ESCC, lung and NPC carcinoma cells; experiment: Monolayer colony formation assay; format: cell-based, human; settings: ectopically expressed DLEC1 in ESCC
Method: (§1) Four pairs of primers (Table 6) were used to generate 4 DLEC1 fragments based on published DLEC1 sequence (GenBank accession number AB020522). Reverse transcription was carried out using normal testis RNA as template (BD Biosciences, Palo Alto, Calif.). The 4 product fragments were ligated to generate pcDNA3.1(+)-Flag-DLEC1 and pCMV-Flag-DLEC1-V5 expression plasmids. The mutation for three YXXQ motifs of DLEC1 (DLEC1-3Y, YXXQ-GGGG (“GGGG” disclosed as SEQ ID NO: 7)) was introduced by PCR into pCMV-Flag-DLEC1-V5 vector, with sequence confirmed. STAT3C expression plasmid was a gift from Prof. Honglin Chen (University of Hong Kong). Cells were transfected with lipofectamine 3000 (Invitrogen, Carlsbad, Calif.), and the cells were cultured in RPMI 1640 supplemented with 10% FBS and selected in 400 μg/mL of G418 for 20-30 days to establish some stable cell pools, with confirmed DLEC1 expression.
(§2) Colony formation assay was conducted as previously described. All experiments were performed in triplicate wells 3 times. To monitor cell proliferation, 1000 cells were plated in a 96-well plate and incubated at 37° C. in selective media for 3-(4,5-dimethylthiazolyl-2)-2,5-diphenyltetrazolium bromide (MTT) assay.

[4] = tested on: multiple carcinoma cells stably-expressing DLEC1; experiment: Cell proliferation (MTT) assay; format: cell-based, human
Method: as §1, §2

[5] = tested on: KYSE150, H1299 and HONE1 cells; experiment: Cell cycle analysis by flow cytometry (propidium iodide); format: cell-based, human; settings: DLEC1-expressing KYSE150, H1299 and HONE1 cells
Source text: (§3) Flow cytometry analysis of cell cycle and apoptosis was described previously. Cells were stained with propidium iodide (PI) and Annexin V-FITC (BD Biosciences, Bedford, Mass.), and sorted by Accuri C6 (BD Biosciences, Bedford, Mass.) according to the manufacturer's protocol.

[6] = tested on: carcinoma cells; experiment: Cell apoptosis assay (Annexin V-FITC/PI flow cytometry, Western blot of apoptosis markers); format: cell-based, human
Method: as §3
(§4) Human IL-6 (PF01229) (Peprotech, Rocky Hill, N.J.) was used. Western blot and IP experiments were performed according to previous protocols.

[7] = tested on: ESCC, lung and NPC carcinoma cells; experiment: Transwell migration and Matrigel invasion assays; format: cell-based, human; settings: transwell assay, ectopic expression of DLEC1
Method: Transwell migration and invasion assays were performed as previously described. The numbers of migrated or invaded cells were observed and counted using a light microscope. Five fields were randomly chosen and the numbers of penetrated cells were counted.

[8] = tested on: carcinoma cells; experiment: Scratch wound-healing assay; format: cell-based, human; settings: confluent monolayer, versus mock cells
Method: Cell motility was assessed using a scratch wound-healing assay. Cells transient transfected with DLEC1 were cultured in 6-well plates until confluent. A single scratch was produced in the cell layer using a sterile tip. After incubation for 24 and 48 hours, cells were photographed under a phase contrast microscope. The experiments were performed in triplicates.

[9] = tested on: carcinoma cells; experiment: EMT, actin stress fiber and stemness marker analysis (immunofluorescence, Western blot, qPCR); format: cell-based, human
Method: RNA was reverse-transcribed using MuLV reverse transcriptase (GeneAmp RNA PCR kit, Applied Biosystems). RT-PCR was performed as described previously using GAPDH as a control.
Cells grown on coverslips were stained by indirect immunofluorescence as described previously. Briefly, cells were incubated with primary antibodies against DLEC1, E-cadherin, or Vimentin and then incubated with Alexa Fluor 594-conjugated secondary antibody against mouse IgG (A11062) (Invitrogen Molecular Probes, Carlsbad, Calif.), or FITC-conjugated secondary antibody against rabbit IgG (F0205) (DAKO, Denmark). To analyze the effects of DLEC1 on actin stress fiber formation, cells were serum starved for 24 h before incubation in medium-containing 5% fetal bovine serum. After 1 h, cells were fixed and stained by Rhodamine-labeled phalloidin (Invitrogen Molecular Probes). Cells were then counterstained with DAPI and imaged with an Olympus BX51 microscope (Olympus Corporation, Tokyo, Japan).

[10] = tested on: NF-κB, AP-1, STATs-bs, TopFlash, SRE and PAI-1 reporters; experiment: Dual-luciferase reporter assay of signaling pathways; format: cell-based, human; settings: carcinoma cells (ESCC, lung, NPC) or immortalized normal epithelial cells (NP69)
Method: The promoter activities were determined by luciferase reporter assays. Luciferase reporters of several key signaling pathways, including NF-κB-luc, AP-1-luc, SRE-luc, STATs-bs-luc, TopFlash-luc, and PAI-luc were used to examine signaling pathway regulated by DLEC1 Cells were transiently co-transfected with DLEC1 expression vector and phRL-TK […]. […] After 48 h, cells were lysed and luciferase activities were measured using Dual-Luciferase® Reporter Assay System (Promega, Madison, Wis.). To normalize transfection efficiency, phRL-TK luciferase activities were measured as an internal control. At least three independent experiments were performed, with each repeated in triplicates.

[11] = tested on: p-ERK, p-AKT, p-STAT3, active β-catenin; experiment: Western blot of signaling protein phosphorylation; format: cell-based, human
Method: as §4

[12] = molecular target: T1, STAT3 (Homo sapiens, UniProt P40763); experiment: Co-immunoprecipitation with STAT3; format: binding
T1 construct: Association of endogenous DLEC1 and STAT3 proteins in HEK293T cells; endogenous in cells; host or cells: HEK293T
T1 sequence (P40763 whole entry): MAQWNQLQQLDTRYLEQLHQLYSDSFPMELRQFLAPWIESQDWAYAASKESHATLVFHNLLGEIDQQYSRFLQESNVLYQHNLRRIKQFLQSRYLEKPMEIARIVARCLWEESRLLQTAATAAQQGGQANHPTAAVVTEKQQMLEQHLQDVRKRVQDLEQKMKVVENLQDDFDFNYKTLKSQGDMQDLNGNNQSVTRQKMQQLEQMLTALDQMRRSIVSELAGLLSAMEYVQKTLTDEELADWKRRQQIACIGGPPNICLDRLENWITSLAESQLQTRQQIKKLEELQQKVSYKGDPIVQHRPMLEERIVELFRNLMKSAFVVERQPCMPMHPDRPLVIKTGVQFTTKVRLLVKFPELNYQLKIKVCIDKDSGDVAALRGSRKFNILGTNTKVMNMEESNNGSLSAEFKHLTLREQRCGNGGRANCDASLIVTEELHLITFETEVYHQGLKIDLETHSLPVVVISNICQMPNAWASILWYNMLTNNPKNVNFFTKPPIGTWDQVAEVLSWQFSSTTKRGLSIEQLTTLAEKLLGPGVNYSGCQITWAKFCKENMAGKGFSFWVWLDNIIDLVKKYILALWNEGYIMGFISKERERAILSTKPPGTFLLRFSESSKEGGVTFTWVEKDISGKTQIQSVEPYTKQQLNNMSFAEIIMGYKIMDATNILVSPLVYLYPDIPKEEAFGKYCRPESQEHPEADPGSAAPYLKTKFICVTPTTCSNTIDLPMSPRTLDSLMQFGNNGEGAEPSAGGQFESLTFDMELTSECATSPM
Method: as §4

[13] = molecular target: T2, JAK2 (Homo sapiens, UniProt O60674); experiment: Co-immunoprecipitation with JAK2; format: binding
T2 construct: endogenous in cells; host or cells: HEK293T
T2 sequence (O60674 whole entry): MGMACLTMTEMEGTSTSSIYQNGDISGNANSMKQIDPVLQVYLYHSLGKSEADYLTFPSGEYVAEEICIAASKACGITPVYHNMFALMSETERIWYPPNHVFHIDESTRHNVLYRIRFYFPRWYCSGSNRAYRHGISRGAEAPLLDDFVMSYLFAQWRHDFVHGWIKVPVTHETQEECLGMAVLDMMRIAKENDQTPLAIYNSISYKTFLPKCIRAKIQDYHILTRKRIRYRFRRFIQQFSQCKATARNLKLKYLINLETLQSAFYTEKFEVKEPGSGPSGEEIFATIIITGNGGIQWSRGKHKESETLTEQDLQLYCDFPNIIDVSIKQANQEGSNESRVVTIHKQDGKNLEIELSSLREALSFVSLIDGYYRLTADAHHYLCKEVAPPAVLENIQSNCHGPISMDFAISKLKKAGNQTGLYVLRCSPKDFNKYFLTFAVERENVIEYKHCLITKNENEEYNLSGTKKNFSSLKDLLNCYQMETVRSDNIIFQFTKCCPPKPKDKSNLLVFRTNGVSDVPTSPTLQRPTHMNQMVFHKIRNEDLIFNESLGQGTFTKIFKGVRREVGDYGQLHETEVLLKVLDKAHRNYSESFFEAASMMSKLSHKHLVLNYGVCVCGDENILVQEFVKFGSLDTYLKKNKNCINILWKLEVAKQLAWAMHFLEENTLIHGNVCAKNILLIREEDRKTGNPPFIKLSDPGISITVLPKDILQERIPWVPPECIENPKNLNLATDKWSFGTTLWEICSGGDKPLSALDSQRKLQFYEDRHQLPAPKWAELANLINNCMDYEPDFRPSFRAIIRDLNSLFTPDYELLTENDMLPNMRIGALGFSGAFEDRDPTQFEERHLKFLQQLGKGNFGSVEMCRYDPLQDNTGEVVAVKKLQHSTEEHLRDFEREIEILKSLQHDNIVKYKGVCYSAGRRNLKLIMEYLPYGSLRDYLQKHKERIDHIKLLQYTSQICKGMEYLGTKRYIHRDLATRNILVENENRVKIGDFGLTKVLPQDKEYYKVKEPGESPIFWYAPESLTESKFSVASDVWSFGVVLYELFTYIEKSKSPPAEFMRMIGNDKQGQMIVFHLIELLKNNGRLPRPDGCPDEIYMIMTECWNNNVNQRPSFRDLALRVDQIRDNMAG
Method: as §4

binding of acetylated histone 4 to the DLEC1 CGI [2]: increased
Compound: CC(/C=C/C(=O)NO)=C\[C@@H](C)C(=O)c1ccc(N(C)C)cc1 [TSA, Trichostatin A]
DLEC1 expression ([1]; TSA-treated lung carcinoma cell line H1299): moderately induced

Compound: Nc1ncn([C@H]2C[C@H](O)[C@@H](CO)O2)c(=O)n1 [Aza, 5-aza-2′-deoxycytidine]
Expression of DLEC1 ([1]; NPC cells): restored or increased | DLEC1 expression ([1]; cell lines of ESCC, lung and NPC with silenced DLEC1, 5 μM Aza for 3 days, or followed with ~16 h TSA): increased

interaction of DLEC1 with STAT3 ([12]; IL-6 stimulation): increased | interaction with STAT3/p-STAT3 (Tyr705) ([12]; endogenous proteins, HEK293T cells, immunoprecipitation): strong interaction | interaction of STAT3 with JAK2 ([13]; IL-6 dependent manner): inhibited | interaction with JAK2 and p-STAT3 (Tyr705) ([13]; IL-6 stimulation): decreasing | co-precipitation of JAK2 ([13]; endogenous proteins, HEK293T cells): relatively weaker co-precipitation
Compound: DLEC1: 1755-amino acid human DLEC1 protein (SEQ ID NO:4), ectopically expressed from pcDNA3.1(+)-Flag-DLEC1 / pCMV-Flag-DLEC1-V5 plasmids
colony numbers and sizes compared to controls [3]: 10-40% | growth rates [4]: slower growth rates | cell cycle distribution [5]: increased G2-M phase cells and decreased S phase cells | apoptosis markers (cleaved caspase-3 and PARP) ([6]; Western blot): increase | apoptotic cells ([6]; after transfection with DLEC1-expression vector): significantly increased | cell invasion [7]: dramatically suppressed | cell migration [7]: dramatically suppressed | closing of artificial wounds [8]: less proficiency in closing artificial wounds than mock cells | stem cell markers (STAT3, CD44, ABCG2, TWIST and KLF4) ([9]; ESCC and lung carcinoma cells, qPCR): downregulated | E-cadherin, vimentin and metastasis markers (MMP7, Twist) ([9]; Western blot): Upregulated E-cadherin and downregulated vimentin and metastasis markers (MMP7, Twist) | formation of actin stress fibers ([9]; carcinoma cells): disassembled | EMT markers E-cadherin and vimentin ([9]; immunofluorescence): gain of epithelial marker E-cadherin and loss of mesenchymal marker vimentin | reporter activities of NF-κB, AP-1, STATs-bs, TopFlash, SRE and PAI-1 elements-regulated promoters [10]: markedly repressed | levels of p-ERK (Thr202/Tyr204), p-AKT (Ser473), p-STAT3 (Tyr705 and Ser727) and active β-catenin ([11]; DLEC1-expressing carcinoma cells): significantly decreased | IL-6 treatment-enhanced STAT3 phosphorylation levels ([11]; IL-6 10 ng/mL for 30 min, KYSE150 and H1299 cells): suppress | p-STAT3 levels at both Tyr705 and Ser727 sites ([11]; STAT3C-transfected carcinoma cells): greatly suppressed | p-STAT3 (Tyr705) ([11]; increasing doses of DLEC1-expressing plasmids, dose-dependent): Marked decrease
